System: 485176-168-R4-J1-PDC complex spheroid growth
Test: Anticancer human tumor 485176-168-R4-J1-PDC patient-derived pancreatic adenocarcinoma cell line growth inhibition [RAS]
Conditions: for IC50: curve of first compound; for viability, T/C: stronger effect = lower value
How it was run: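 Multi-cell-type spheroids: tumor cells plus HUVEC endothelial cells and mesenchymal stem cells. RAS-pathway inhibitors were combined with targeted agents, each dosed in half-log steps down from clinical Cmax, or from 10 microM when Cmax was unknown.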

[1] = second compound 0.00316 µM, first compound 0.0316 µM
[2] = second compound 0.00316 µM, first compound 0.1 µM
[3] = second compound 0.00316 µM, first compound 0.316 µM
[4] = second compound 0.00316 µM, first compound 1 µM
[5] = second compound 0.00316 µM, first compound 3.16 µM
[6] = second compound 0.00316 µM, first compound 10 µM
[7] = second compound 0.01 µM, first compound 0.0316 µM
[8] = second compound 0.01 µM, first compound 0.1 µM
[9] = second compound 0.01 µM, first compound 0.316 µM
[10] = second compound 0.01 µM, first compound 1 µM
[11] = second compound 0.01 µM, first compound 3.16 µM
[12] = second compound 0.01 µM, first compound 10 µM
[13] = second compound 0.0316 µM, first compound 0.0316 µM
[14] = second compound 0.0316 µM, first compound 0.1 µM
[15] = second compound 0.0316 µM, first compound 0.316 µM
[16] = second compound 0.0316 µM, first compound 1 µM
[17] = second compound 0.0316 µM, first compound 3.16 µM
[18] = second compound 0.0316 µM, first compound 10 µM
[19] = second compound 0.1 µM, first compound 0.0316 µM
[20] = second compound 0.1 µM, first compound 0.1 µM
[21] = second compound 0.1 µM, first compound 0.316 µM
[22] = second compound 0.1 µM, first compound 1 µM
[23] = second compound 0.1 µM, first compound 3.16 µM
[24] = second compound 0.1 µM, first compound 10 µM
[25] = second compound 0.316 µM, first compound 0.0316 µM
[26] = second compound 0.316 µM, first compound 0.1 µM
[27] = second compound 0.316 µM, first compound 0.316 µM
[28] = second compound 0.316 µM, first compound 1 µM
[29] = second compound 0.316 µM, first compound 3.16 µM
[30] = second compound 0.316 µM, first compound 10 µM
[31] = second compound 1 µM, first compound 0.0316 µM
[32] = second compound 1 µM, first compound 0.1 µM
[33] = second compound 1 µM, first compound 0.316 µM
[34] = second compound 1 µM, first compound 1 µM
[35] = second compound 1 µM, first compound 3.16 µM
[36] = second compound 1 µM, first compound 10 µM
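Further: spheroids exposed to compounds for seven days before readout.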
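Wherever viability, T/C is given: luminescence viability expressed relative to DMSO vehicle wells set as 100%.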

**Q.** What does the source list for CC(Nc1ccc2c(c1)OCCn1cc(N3C(=O)OCC3C(F)F)nc1-2)C(N)=O (stereo unspecified) + C=CC(=O)N1CCN(c2nc(OCC3CCCN3C)nc3c(F)c(-c4nc(N)cc(C)c4C(F)(F)F)c(Cl)cc23)C(C)C1?
**A.** IC50 (second compound 0.00316 µM): > 10 µM; IC50 (second compound 0.01 µM): > 10 µM; IC50 (second compound 0.0316 µM): > 10 µM; IC50 (second compound 0.1 µM): > 10 µM; IC50 (second compound 0.316 µM): > 10 µM; IC50 (second compound 1 µM): 8.19 µM; viability, T/C [1]: 91.2%; viability, T/C [2]: 83.3%; viability, T/C [3]: 64.8%; viability, T/C [4]: 69.9%; viability, T/C [5]: 58.1%; viability, T/C [6]: 52.1%; viability, T/C [7]: 90.3%; viability, T/C [8]: 98.4%; viability, T/C [9]: 88.9%; viability, T/C [10]: 73.6%; viability, T/C [11]: 77.9%; viability, T/C [12]: 59.1%; viability, T/C [13]: 102%; viability, T/C [14]: 78.5%; viability, T/C [15]: 79%; viability, T/C [16]: 81.8%; viability, T/C [17]: 63.6%; viability, T/C [18]: 62.8%; viability, T/C [19]: 82.9%; viability, T/C [20]: 99%; viability, T/C [21]: 63%; viability, T/C [22]: 60.2%; viability, T/C [23]: 61.8%; viability, T/C [24]: 43.6%; viability, T/C [25]: 108%; viability, T/C [26]: 83%; viability, T/C [27]: 81.5%; viability, T/C [28]: 69.8%; viability, T/C [29]: 75.6%; viability, T/C [30]: 57.3%; viability, T/C [31]: 85.9%; viability, T/C [32]: 85.7%; viability, T/C [33]: 69.5%; viability, T/C [34]: 76.3%; viability, T/C [35]: 55.7%; viability, T/C [36]: 48.8%

**Q.** For CCN1CCN(Cc2ccc(Nc3ncc(F)c(-c4cc(F)c5nc(C)n(C(C)C)c5c4)n3)nc2)CC1 + C=CC(=O)N1CCN(c2nc(OCC3CCCN3C)nc3c(F)c(-c4nc(N)cc(C)c4C(F)(F)F)c(Cl)cc23)C(C)C1, which IC50 (second compound 0.00316 µM) is on record?
**A.** > 1 µM

**Q.** And the IC50 (second compound 0.01 µM)?
**A.** > 1 µM

**Q.** And the IC50 (second compound 0.0316 µM)?
**A.** > 1 µM

**Q.** What about the IC50 (second compound 0.1 µM) of the same molecule?
**A.** > 1 µM

**Q.** And the IC50 (second compound 0.316 µM)?
**A.** > 1 µM

**Q.** What about the IC50 (second compound 1 µM) of the same molecule?
**A.** > 1 µM

**Q.** What about the viability, T/C (second compound 0.00316 µM, first compound 0.00316 µM) of the same molecule?
**A.** 102%

**Q.** And the viability, T/C (second compound 0.00316 µM, first compound 0.01 µM)?
**A.** 92.7%

**Q.** What about the viability, T/C [1] of the same molecule?
**A.** 107%

**Q.** And the viability, T/C [2]?
**A.** 88.7%

**Q.** What about the viability, T/C [3] of the same molecule?
**A.** 69.1%

**Q.** What about the viability, T/C [4] of the same molecule?
**A.** 59.7%

**Q.** And the viability, T/C (second compound 0.01 µM, first compound 0.00316 µM)?
**A.** 108%

**Q.** And the viability, T/C (second compound 0.01 µM, first compound 0.01 µM)?
**A.** 90.1%

**Q.** And the viability, T/C [7]?
**A.** 108%

**Q.** What about the viability, T/C [8] of the same molecule?
**A.** 80.5%

**Q.** And the viability, T/C [9]?
**A.** 80.2%

**Q.** And the viability, T/C [10]?
**A.** 77.3%

**Q.** And the viability, T/C (second compound 0.0316 µM, first compound 0.00316 µM)?
**A.** 101%

**Q.** And the viability, T/C (second compound 0.0316 µM, first compound 0.01 µM)?
**A.** 89.8%

**Q.** And the viability, T/C [13]?
**A.** 88.2%

**Q.** What about the viability, T/C [14] of the same molecule?
**A.** 80.5%

**Q.** And the viability, T/C [15]?
**A.** 95.8%

**Q.** What about the viability, T/C [16] of the same molecule?
**A.** 53.9%

**Q.** And the viability, T/C (second compound 0.1 µM, first compound 0.00316 µM)?
**A.** 116%

**Q.** What about the viability, T/C (second compound 0.1 µM, first compound 0.01 µM) of the same molecule?
**A.** 102%

**Q.** What about the viability, T/C [19] of the same molecule?
**A.** 89%

**Q.** And the viability, T/C [20]?
**A.** 93.5%

**Q.** What about the viability, T/C [21] of the same molecule?
**A.** 83.7%

**Q.** And the viability, T/C [22]?
**A.** 68.1%

**Q.** What about the viability, T/C (second compound 0.316 µM, first compound 0.00316 µM) of the same molecule?
**A.** 107%

**Q.** What about the viability, T/C (second compound 0.316 µM, first compound 0.01 µM) of the same molecule?
**A.** 108%

**Q.** And the viability, T/C [25]?
**A.** 77.5%

**Q.** What about the viability, T/C [26] of the same molecule?
**A.** 92%

**Q.** And the viability, T/C [27]?
**A.** 75%

**Q.** And the viability, T/C [28]?
**A.** 60.1%

**Q.** And the viability, T/C (second compound 1 µM, first compound 0.00316 µM)?
**A.** 97.1%

**Q.** And the viability, T/C (second compound 1 µM, first compound 0.01 µM)?
**A.** 92.6%

**Q.** And the viability, T/C [31]?
**A.** 111%

**Q.** And the viability, T/C [32]?
**A.** 87%

**Q.** What about the viability, T/C [33] of the same molecule?
**A.** 83.9%

**Q.** And the viability, T/C [34]?
**A.** 60%

**Q.** How did the IC50 (second compound 0.00316 µM) turn out when C[C@@H](NC(=O)c1ncnc(N)c1Cl)c1ncc(C(=O)Nc2cc(C(F)(F)F)c(Cl)cn2)s1 + C=CC(=O)N1CCN(c2nc(OCC3CCCN3C)nc3c(F)c(-c4nc(N)cc(C)c4C(F)(F)F)c(Cl)cc23)C(C)C1 was run?
**A.** > 10 µM

**Q.** What about the IC50 (second compound 0.01 µM) of the same molecule?
**A.** > 10 µM

**Q.** And the IC50 (second compound 0.0316 µM)?
**A.** > 10 µM

**Q.** What about the IC50 (second compound 0.1 µM) of the same molecule?
**A.** > 10 µM

**Q.** And the IC50 (second compound 0.316 µM)?
**A.** > 10 µM

**Q.** What about the IC50 (second compound 1 µM) of the same molecule?
**A.** > 10 µM

**Q.** What about the viability, T/C [1] of the same molecule?
**A.** 106%

**Q.** And the viability, T/C [2]?
**A.** 104%

**Q.** What about the viability, T/C [3] of the same molecule?
**A.** 101%

**Q.** What about the viability, T/C [4] of the same molecule?
**A.** 86.2%

**Q.** And the viability, T/C [5]?
**A.** 84.7%

**Q.** What about the viability, T/C [6] of the same molecule?
**A.** 56.9%

**Q.** And the viability, T/C [7]?
**A.** 96.1%

**Q.** And the viability, T/C [8]?
**A.** 94%

**Q.** What about the viability, T/C [9] of the same molecule?
**A.** 96.5%

**Q.** What about the viability, T/C [10] of the same molecule?
**A.** 75.8%

**Q.** What about the viability, T/C [11] of the same molecule?
**A.** 81.3%

**Q.** What about the viability, T/C [12] of the same molecule?
**A.** 60.3%

**Q.** And the viability, T/C [13]?
**A.** 111%

**Q.** And the viability, T/C [14]?
**A.** 98.4%

**Q.** What about the viability, T/C [15] of the same molecule?
**A.** 100%

**Q.** And the viability, T/C [16]?
**A.** 81.1%

**Q.** What about the viability, T/C [17] of the same molecule?
**A.** 75.6%

**Q.** What about the viability, T/C [18] of the same molecule?
**A.** 59.3%

**Q.** And the viability, T/C [19]?
**A.** 89.5%

**Q.** What about the viability, T/C [20] of the same molecule?
**A.** 92.3%

**Q.** And the viability, T/C [21]?
**A.** 101%

**Q.** And the viability, T/C [22]?
**A.** 92%

**Q.** And the viability, T/C [23]?
**A.** 78.5%

**Q.** What about the viability, T/C [24] of the same molecule?
**A.** 63.4%

**Q.** What about the viability, T/C [25] of the same molecule?
**A.** 108%

**Q.** What about the viability, T/C [26] of the same molecule?
**A.** 102%

**Q.** And the viability, T/C [27]?
**A.** 101%

**Q.** What about the viability, T/C [28] of the same molecule?
**A.** 79.3%

**Q.** What about the viability, T/C [29] of the same molecule?
**A.** 83.2%

**Q.** And the viability, T/C [30]?
**A.** 53%

**Q.** And the viability, T/C [31]?
**A.** 100%

**Q.** And the viability, T/C [32]?
**A.** 95.7%

**Q.** What about the viability, T/C [33] of the same molecule?
**A.** 77.3%

**Q.** And the viability, T/C [34]?
**A.** 88.5%

**Q.** What about the viability, T/C [35] of the same molecule?
**A.** 63.7%

**Q.** And the viability, T/C [36]?
**A.** 52.1%

Source: PubChem BioAssay AID2060906 (Molecular Pharmacology Branch, DTP, NCI, 2025)
